Calls of active or inactive are those of the source. The calls are words filed in the database; no cut-off is given here.
Key:
[1] = species on record: Homo sapiens; assay: Binding affinity to internal ribosome entry site A RNA G-quadruplex region of VEGF-A protein in human MDA-MB-231 cells assessed as inhibition of VEGF-A protein induced cell migration at 0.5 to 8 uM after 10 hrs by RTCA method; type: cell-based
[2] = species on record: Homo sapiens; assay: Binding affinity to internal ribosome entry site A RNA G-quadruplex region of human VEGF-A 5'-UTR at 10 uM by PCR stop assay
[3] = system: MCF7; assay: Cytotoxicity against human MCF7 cells assessed as reduction in cell viability; type: cell-based
[4] = Binding affinity to 5'- FAM-labeled wild type human internal ribosome entry site A RNA G-quadruplex after 5 mins by MST analysis
[5] = Binding affinity to 5'- FAM-labeled human 5'-UGAUGAGUGUGAGGAGGA-3' RNA G-quadruplex after 5 mins by MST analysis
[6] = species on record: Homo sapiens; assay: Binding affinity to 5'- FAM-labeled human 5'-UGAUGAGUGUGAGUAGUA-3' RNA at 100 uM after 5 mins by MST analysis
[7] = Binding affinity to c-MYC Pu27 DNA G-quadruplex (unknown origin) at 1 uM after 24 hrs by spectrophotometric method
[8] = Binding affinity to C-kit 1 DNA G-quadruplex (unknown origin) at 1 uM after 24 hrs by spectrophotometric method
[9] = species on record: Bos taurus; assay: Binding affinity to calf thymus DNA at 1 uM after 24 hrs by spectrophotometric method
[10] = Binding affinity to TBA DNA G-quadruplex (unknown origin) at 1 uM after 24 hrs by spectrophotometric method
[11] = species on record: Homo sapiens; assay: Binding affinity to human 5'-AGGAGCCGCAGCCGGAAGAGGAGAGGGGGCCGC-3' DNA at 1 uM after 24 hrs by spectrophotometric method
[12] = Binding affinity to ADAM10 RNA G-quadruplex (unknown origin) at 1 uM after 24 hrs by spectrophotometric method
[13] = Binding affinity to NRAS-RNA G-quadruplex (unknown origin) at 1 uM after 24 hrs by spectrophotometric method
[14] = Binding affinity to RNA (unknown origin) at 1 uM after 24 hrs by spectrophotometric method
[15] = Binding affinity to RNA hairpin (unknown origin) at 1 uM after 24 hrs by spectrophotometric method
[16] = species on record: Homo sapiens; assay: Binding affinity to wild type human internal ribosome entry site A RNA G-quadruplex at 1 uM after 24 hrs by spectrophotometric method
[17] = species on record: Homo sapiens; assay: Destabilization of human internal ribosome entry site A RNA G-quadruplex by CD spectral analysis
[18] = species on record: Homo sapiens; assay: Destabilization of human VEGF-A promoter DNA up to 5 uM by CD spectral analysis
[19] = species on record: Homo sapiens; assay: Destabilization of human 5'-FAM-labeled 5'-UGAUGAGUGUGAGUAGUA-3' RNA up to 10 uM measured after 3 hrs by electrophoresis mobility shift assay
[20] = Binding affinity to biotin-labeled human wild type internal ribosome entry site A RNA G-quadruplex by SPR analysis
[21] = Selectivity ratio of Kd for biotin-labeled hairpin DNA (unknown origin) to Kd for biotin-labeled human wild type internal ribosome entry site A RNA G-quadruplex
[22] = species on record: Homo sapiens; assay: Selectivity ratio of Kd for biotin labeled human 5'-UGAUGAGUGUGAGGAGGA-3' RNA G-quadruplex to Kd for biotin-labeled human wild type internal ribosome entry site A RNA G-quadruplex
[23] = species on record: Homo sapiens; assay: Inhibition of BG4 antibody binding to biotin-labeled human wild type internal ribosome entry site A RNA G-quadruplex at 1.25 to 10 uM after 3 hrs by filter binding assay
[24] = species on record: Homo sapiens; assay: Inhibition of FLAG-labeled BG4 antibody binding to human wild type internal ribosome entry site A RNA G-quadruplex at 1.25 to 10 uM preincubated with RNA followed by antibody addition by pull-down assay
[25] = species on record: Homo sapiens; assay: Inhibition of BG4 antibody binding to internal ribosome entry site A RNA G-quadruplex in human MCF7 cells preincubated for 24 hrs followed by BG4 antibody addition measured after 12 hrs by dot blot hybridization assay; type: cell-based
[26] = species on record: Homo sapiens; assay: Inhibition of BG4 protein binding to human wild type internal ribosome entry site A RNA G-quadruplex in MCF7 cells transfected with pcDNA3.1-BG4 plasmid at 2.5 to 5 uM after 24 hrs by qRT-PCR analysis; type: cell-based
[27] = system: MCF7; assay: Cytotoxicity against human MCF7 cells after 24 hrs relative to control; type: cell-based; conditions: mcf7, 24 h
[28] = system: MCF7; assay: Cytotoxicity against human MCF7 cells after 48 hrs relative to control; type: cell-based; conditions: mcf7, 48 h
[29] = species on record: Homo sapiens; assay: Destabilization of human wild type internal ribosome entry site A RNA G-quadruplex expressed in MCF7 cells assessed as down regulation of VEGF-A translation at 1.5 uM after 24 hrs by dual-luciferase reporter gene assay relative to control; type: cell-based
[30] = species on record: Homo sapiens; assay: Destabilization of human 5'-UGAUGAGUGUGAGUAGUA-3' RNA expressed in MCF7 cells assessed as down regulation of VEGF-A translation at 0.1875 to 1.5 uM after 24 hrs by dual-luciferase reporter gene assay; type: cell-based
[31] = species on record: Homo sapiens; assay: Destabilization of human wild type internal ribosome entry site A RNA G-quadruplex expressed in human MCF7 cells assessed as decrease in VEGF-A protein expression at 1.5 uM after 48 hrs by ELISA relative to control; type: cell-based; design: scale not given: the % may be the effect or the level left
[32] = species on record: Homo sapiens; assay: Destabilization of human wild type internal ribosome entry site A RNA G-quadruplex expression in human MCF7 cells assessed as decrease in VEGF-A protein expression at 0.1875 to 3 uM by Western blot analysis; type: cell-based
[33] = system: MCF7; assay: Effect on human wild type internal ribosome entry site A RNA G-quadruplex transcription expressed in human MCF7 cells assessed as Met luciferase gene expression at 0.1875 to 1.5 uM after 20 hrs by RT-PCR analysis; type: functional, cell-based
[34] = system: MCF7; assay: Effect on human VEGF-A transcription expressed in human MCF7 cells assessed as Met luciferase gene expression at 0.1875 to 3 uM by qRT-PCR analysis; type: functional, cell-based
[35] = species on record: Homo sapiens; assay: Binding affinity to internal ribosome entry site A RNA G-quadruplex region of VEGF-A protein in CoCl2 treated human MCF7 cells assessed as VEGF-A protein induced cell migration at 3 uM preincubated for 48 hrs followed by VEGF-A protein addition measured after 12 hrs by cell scrape test relative to control
[36] = system: MCF7; assay: Antitumor activity against human MCF7 cells xenografted in nude Balb/c mouse assessed as tumor volume at 7.5 mg/kg, ip qd for 20 days (Rvb >700 mm3); type: functional
[37] = system: MCF7; assay: Antitumor activity against human MCF7 cells xenografted in nude Balb/c mouse assessed as reduction in tumor weight at 7.5 mg/kg, ip qd for 20 days relative to control; type: functional; design: scale not given: the % may be the effect or the level left
[38] = system: Mus musculus; assay: Toxicity in nude Balb/c mouse xenografted with human MCF7 cells assessed as change in body weight at 7.5 mg/kg, ip qd for 20 days; type: organism-based; conditions: in vivo, 480 h
[39] = system: MCF7; assay: Effect on BG4 protein expression in human MCF7 cells up to 1.5 uM by Western blot method; type: ADME, cell-based

## CCN(CC)CCOc1ccc(Nc2nc(-c3ccccc3NC(=O)CCN3CCN(C)CC3)nc3ccccc23)cc1
[1]
  Activity: inactive
[2]
  Activity: inactive
[3]
  IC50: 12.5 µM
[4]
  Kd: 1.29 µM
[5]
  Kd: 13.4 to 20.5 µM
[6]
  Activity: inactive
[7]
  Activity: inactive
[8]
  Activity: inactive
[9]
  Activity: inactive
[10]
  Activity: inactive
[11]
  Activity: inactive
[12]
  Activity: inactive
[13]
  Activity: inactive
[14]
  Activity: inactive
[15]
  Activity: inactive
[16]
  Activity: Active
[17]
  Activity: Dose-dependent effect
[18]
  Activity: Active
[19]
  Activity: inactive
[20]
  Kd: 0.928 µM
[21]
  Selectivity ratio: 23
[22]
  Selectivity ratio: 4
[23]
  inhibition: Active
[24]
  inhibition: Active
[25]
  inhibition: Dose-dependent effect
[26]
  inhibition: Active
[27]
  Activity: 65.5%
[28]
  Activity: 82.7%
[29]
  Activity: 80%
[30]
  Activity: inactive
[31]
  Activity: 75%
[32]
  Activity: Active
[33]
  Activity: inactive
[34]
  Activity: inactive
[35]
  Activity: 35%
[36]
  Activity: <300 mm3
[37]
  Activity: 60.1%
[38]
  Activity: Non-Toxic
[39]
  Activity: Non-Toxic

— ChEMBL document CHEMBL4014333, “Discovery of Small Molecules for Repressing Cap-Independent Translation of Human Vascular Endothelial Growth Factor (hVEGF) as Novel Antitumor Agents” (J Med Chem, 2017)
